Experimental data: patent US20060234909A1, “Compositions and methods for increasing drug efficiency” (priority 2003, published 2006)
Primed or numbered codes have the meaning given here. * marks the point of attachment. 10Ca = carbamate linkage conjugating the peptide-PEG to paclitaxel at C10; 10Ca‑PXL = paclitaxel conjugated at C10 via a carbamate; 3Am‑VBL = vinblastine (VBL) conjugate; 3′Alk‑MAL(9) = not defined here; ALK(6) = not defined here; MAL(9) = not defined here; 3′Alk = not defined here; PEG(11) = PEG(11) linker; PEG(29) = PEG(29) linker; 10Es = not defined here; PEG(11)″ = PEG11 linker; 3Am = not defined here; Cbz = O=C(OCc1ccccc1)*; PEG(13) = PEG13 linker; Boc = CC(C)(C)OC(=O)*; Piv = CC(C)(C)C(=O)*; OBn = c1ccc(CO*)cc1; DOX = doxorubicin; VBL = vinblastine; PXL = paclitaxel

Tests used:
Human Src = target: T1, Human Src (Homo sapiens, UniProt P12931); assay: Src kinase assay (PKLight ATP utilization, substrate phosphorylation as % of parent peptide); format: biochemical; settings: for Src (Qual. Act.): DOX-Src kinase substrate conjugates
T1 construct: purchased Upstate (Charlottesville, Va.) 14-326
Procedure: Another test may involve monitoring the consumption of ATP. For example, ATP concentrations at time 0 or after 4 hour incubation may be monitored by luciferase reaction (PKLight kit obtained from Cambrex Corporation, One Meadowlands Plaza, East Rutherford, N.J. 07073), which generate a luminescence readout in the presence of ATP. Assays are initiated by mixing a kinase and a peptide in the presence of 40 μM ATP. After 4 hour of incubation at 30° C., PKLight reagent is added and mixed well, and luminescence readout measured. The rate of peptide phosphorylation is then directly related to the rate of decrease in the observed luminescence. Based on the first test, linkers of appropriate lengths and peptides with an effective amount of kinase activity which may be expected to be retained in the drug conjugate may be found.
Human Src (#14-326) and Akt (#14-276) kinases were purchased from Upstate (Charlottesville, Va.). Kinase reactions were carried out in 50 μl kinase reaction cocktail (25 mM Tris-HCl, pH 7.5, 5 μM β-glycerophosphate, 2 mM DTT, 0.1 mM Na3VO4, 10 mM MgCl2, 1 mg/ml BSA, […], 0.5 to 1.0 units enzyme). Substrates (peptide or drug-peptide conjugate in […]) were added (25, 50 and 100 μM) and the reaction was incubated for 2-5 hours at 30° C. PKLight reagent (23 μl) (Cambrex BioSciences, Rockland, Me.) was mixed with […] of the above kinase reaction and ATP utilization relative to no substrate and no ATP controls was determined by measuring luminescence with a SpectraMax Gemini EM plate reader (Molecular Devices, Sunnyvale, Calif.). Peptide substrates for Src and Akt have been described. For examples, see Lou et al. Letters in Peptide Science, 2, 289-296 (1995); Lou et al. Bioorganic & Medicinal Chemistry, 4, 677-682 (1996); Alessi et al. FEBS Letters, 399, 333-338 (1996). Substrate phosphorylation potential was determined from the linear portion of the substrate concentration dose response as a percentage of the activity observed with the parent peptide used for drug conjugation.

tubulin = assay: Fluorescence-based tubulin polymerization assay (MPA; enhancement for paclitaxel, inhibition for vinblastine); format: biochemical
Excerpt: Drug-linker constructs may further be screened using functional assays predictive of biological activity. […] Tubulin assembly or inhibition thereof may be monitored by fluorescence using the CytoDYNAMIX Screen™ 10 kit available from Cytoskeleton (1830 S. Acoma St., Denver, Colo.). […] Emission is monitored at 405 nm with excitation at 360 nm. […] Tubulin assembly or inhibition may also be monitored by light scattering which is approximated by the apparent absorption at 350 nm. For paclitaxel drug conjugates BSA is employed to prevent aggregation and glycerol, which is a tubulin polymerization enhancer, is omitted from the kit to increase the signal to noise ratio.
The assay kit (#BK011) was purchased from Cytoskeleton (Denver, Colo.). The assays were carried out according to the manufacturer's instructions, except that 1 mg/ml BSA (Sigma #A3059) was included in all assays. […] Parent drugs and conjugates were tested at 0.75, 1.5, 3 and 10 micromolar final concentration and results represent a comparison of conjugate and parent drug curves obtained from the linear range of the dose responses.
(±SD) represent the average of all tests carried out for all lots of a given compound.

HUVEC = assay: Cytotoxicity assay (monolayer), HUVEC; format: cell-based; settings: ML (monolayer), read-out: HUVEC (EC50 Ave) ML
[1] = test system: HT-29 colorectal carcinoma; assay: Cytotoxicity assay (monolayer), HT-29; format: cell-based; settings: HT29, ML (monolayer); read-out: HT29 (EC50 Ave) ML;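 further: monolayer cultures tested in triplicate, compound exposure for three days against DMSO vehicle controls, EC50 fitted from dose-response curves and averaged across all tests and lots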
MCF-7 breast carcinoma = assay: Cytotoxicity assay (monolayer), MCF-7; format: cell-based; settings: MCF7, ML (monolayer); read-out: MCF7 (EC50 Ave) ML;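 further: cells treated 72 h with 6-8 compound doses versus DMSO vehicle controls, EC50 fitted by 4-parameter dose-response curves, averaged across all tests and lots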
[2] = test system: Normal human foreskin fibroblasts (HFF); settings: read-out: HFF (EC50 Ave) ML; HFF, ML (monolayer)

| Substance | Average src kinase activity (Human Src) | Ave. MPA Act. (tubulin) | EC50 (HUVEC) | EC50 [1] | EC50 (MCF-7 breast carcinoma) | Src (Qual. Act.) (Human Src) | EC50 [2] |
| --- | --- | --- | --- | --- | --- | --- | --- |
| Ac-E(Bzl)YIYGSFK(CBz)-PEG(13)-10Ca-PXL (Ac-E(OBn)YIYGSFK(Cbz)-{PEG(13)-10Ca-PXL}) | Zero | A (A<50) | – | – | – | – | – |
| Ac-EYIFGSFK-PEG(13)-10Ca-PXL (N-acetyl, PEG13, paclitaxel conjugate) | Zero | B (B=50-80) | > 100 nM | > 100 nM | > 100 nM | – | – |
| Ac-EYIYGSFK(CBz)-PEG(13)-10Ca-PXL (Ac-EYIYGSFK(Cbz)-{PEG(13)-10Ca-PXL}) | B (B=20-40) | A (A<50) | > 100 nM | > 100 nM | > 100 nM | – | – |
| Ac-EYIYGSFK-3′Alk-MAL(9)-DOX (Ac-EYIYGSFK-{3′Alk‑MAL(9)-DOX}; reading uncertain; also: printed as Ac-EYIYGSFK-3′Alk-MAL(9)-DOX) | – | – | > 100 nM | – | > 100 nM | C (C>40) | > 100 nM |
| Ac-EYIYGSFR-PEG(13)-10Ca-PXL (N-acetyl, PEG13, paclitaxel conjugate) | B (B=20-40) | B (B=50-80) | > 100 nM | > 100 nM | > 100 nM | – | > 100 nM |
| Ac-YIFGSFK(BOC)-PEG(11)-3Am-VBL (Ac-YIFGSFK(Boc)-{PEG(11)″-3Am-VBL}; reading uncertain; also: printed as Ac-YIFGSFK(BOC)-PEG(11)-3Am-VBL) | B (B=20-40) | B (B=50-80) | > 100 nM | > 100 nM | > 100 nM | – | > 100 nM |
| Ac-YIFGSFK-PEG(11)-3Am-VBL (N-acetyl; PEG(11) linker; vinblastine conjugate) | C (C>40) | B (B=50-80) | > 100 nM | > 100 nM | > 100 nM | – | > 100 nM |
| Ac-YIYGSFH-PEG(11)-3Am-VBL (N-acetyl; PEG(11) linker; vinblastine conjugate) | C (C>40) | C (C>80) | > 100 nM | > 100 nM | > 100 nM | – | > 100 nM |
| Ac-YIYGSFK-3′Alk-MAL(9)-DOX (Ac-YIYGSFK-{3′Alk-MAL(9)-DOX}; reading uncertain; also: printed as Ac-YIYGSFK-3′Alk-MAL(9)-DOX) | – | – | – | – | > 100 nM | C (C>40) | – |
| Ac-YIYGSFK-PEG(13)-10Ca-PXL (N-acetyl; PEG(13) linker; paclitaxel conjugate) | C (C>40) | B (B=50-80) | > 100 nM | > 100 nM | > 100 nM | – | – |
| Ac-YIYGSFR-PEG(13)-10Ca-PXL (N-acetyl; PEG(13) linker; paclitaxel conjugate) | C (C>40) | B (B=50-80) | > 100 nM | > 100 nM | > 100 nM | – | > 100 nM |
| Ac-YIYGSFS-PEG(11)-3Am-VBL (N-acetyl; PEG(11) linker; vinblastine conjugate) | C (C>40) | B (B=50-80) | > 100 nM | > 100 nM | > 100 nM | – | > 100 nM |
| BOC-GIYWHHY-PEG(11)-3Am-VBL (N-BOC; PEG(11) linker; vinblastine conjugate) | A (A<20) | B (B=50-80) | – | > 100 nM | > 100 nM | – | – |
| BOC-GIYWHHY-PEG(29)-3Am-VBL (N-BOC; PEG(29) linker; vinblastine conjugate) | A (A<20) | B (B=50-80) | > 100 nM | – | > 100 nM | – | > 100 nM |
| BOC-YI(phospho)YGSFK(BOC)-PEG(11)-3Am-VBL (Boc-YIYGSFK(Boc)-{PEG(11)-3Am-VBL}; reading uncertain; also: phospho at I2 as written: I(phospho), printed as BOC-YI(phospho)YGSFK(BOC)-PEG(11)-3Am-VBL) | C (C>40) | C (C>80) | > 100 nM | – | > 100 nM | – | 20 to 100 nM |
| BOC-YIYGSFK(BOC)-PEG(11)-3Am-VBL (N-BOC; BOC side chain; PEG(11); vinblastine conjugate) | A (A<20) | B (B=50-80) | > 100 nM | 20 to 100 nM | 20 to 100 nM | – | > 100 nM |
| BOC-YIYGSFS-PEG(11)-3Am-VBL (N-BOC; PEG(11) linker; vinblastine conjugate) | C (C>40) | C (C>80) | > 100 nM | > 100 nM | > 100 nM | – | > 100 nM |
| CBz-GIYWHHY-PEG(11)-3Am-VBL (N-CBz; PEG(11) linker; vinblastine conjugate) | A (A<20) | B (B=50-80) | – | > 100 nM | > 100 nM | – | – |
| CBz-YIYGSFK(BOC)-PEG(11)-3Am-VBL (Cbz-YIYGSFK(Boc)-{PEG(11)-3Am-VBL}; reading uncertain; also: printed as CBz-YIYGSFK(BOC)-PEG(11)-3Am-VBL) | A (A<20) | C (C>80) | > 100 nM | > 100 nM | > 100 nM | – | – |
| CBz-YIYGSFK(CBz)-ALK(6)-10Es-PXL (Cbz-YIYGSFK(Cbz)-{ALK(6)-10Es-PXL}; reading uncertain; also: printed as CBz-YIYGSFK(CBz)-ALK(6)-10Es-PXL) | Zero | – | – | > 100 nM | 20 to 100 nM | – | – |
| CBz-YIYGSFK-3′Alk-MAL(9)-DOX (Cbz-YIYGSFK-{3′Alk-MAL(9)-DOX}; reading uncertain; also: printed as CBz-YIYGSFK-3′Alk-MAL(9)-DOX) | – | – | > 100 nM | – | > 100 nM | C (C>40) | – |
| H-GIYWHHY-PEG(29)-3Am-VBL (H-GIYWHHY-{PEG(29)-3Am-VBL}; reading uncertain) | C (C>40) | C (C>80) | > 100 nM | – | > 100 nM | – | > 100 nM |
| H-YIYGSFK-3′Alk-MAL(9)-DOX (H-YIYGSFK-{3′Alk-MAL(9)-DOX}; reading uncertain) | – | – | – | – | > 100 nM | C (C>40) | > 100 nM |
| H-YIYGSFK-ALK(6)-10Es-PXL (H-YIYGSFK-{ALK(6)-10Es-PXL}; reading uncertain) | C (C>40) | B (B=50-80) | – | > 100 nM | > 100 nM | – | > 100 nM |
| Pv-GRSRTSSFAEG-PEG(13)-10Ca-PXl (Piv-GRSRTSSFAEG-{PEG(13)-10Ca‑PXL}; also: 2 TFA salt) | – | C (C>80) | – | – | – | – | – |
| Pv-RLVAYEGYV-PEG(11)-3Am-VBL (Piv-RLVAYEGYV-{PEG(11)-3Am‑VBL}) | – | B (B=50-80) | > 100 nM | > 100 nM | > 100 nM | – | > 100 nM |
| Pv-RLVAYEGYV-PEG(13)-10Ca-PXL (Piv-RLVAYEGYV-{PEG(13)-10Ca‑PXL}) | – | A (A<50) | > 100 nM | > 100 nM | > 100 nM | – | > 100 nM |
